What was measured:
[1] = test system: primary cultures (TUE-PC1-6); assay: Viability of patient-derived primary cultures; assay type: cell-based; conditions: six primary cultures (TUE-PC1-6), 72 h
Text: Primary tumor tissue was obtained from fresh residual material upon resection at the Department of Neurosurgery, University Hospital Tübingen. The inventors cut the tissue in small pieces, washed it using Hanks Balanced Salt Solution (HBSS) (Gibco, Carlsbad, CA, US) and digested it by collagenase and dispase (Roche, Basel, CH). To remove any remaining erythrocytes, they used red blood cell lysis buffer (Sigma Aldrich, St. Louis, MO, US). The inventors then cultured the cells as GS cells in Neurobasal®-A medium. They first evaluated AZD6738 sensitivity of each primary culture and selected two concentrations. […] To evaluate combination treatment analyses, the inventors leveraged the Bliss independence Criterion.
The inventors seeded 5,000 or 10,000 cells, respectively, on day one, treated the next day in serum-free medium and incubated for up to 72 h. Subsequently, they measured cell viability using CellTiterBlue reagent (Promega, Madison, WI, US) according to manufacturer's instructions with a GloMax (Promega, Madison, Wl, US). The inventors normalized measurements to untreated cells.

[2] = test system: LN229 cells; assay: RNA-Sequencing (RNAseq); assay type: cell-based, human
Experimental: (§1) For this, the inventors seeded the cells on day one and treated them on the next day with IC50 concentrations of AZD6738 for up to 72 h. They extracted the RNA using the Qiagen RNeasy Mini kit (Qiagen, Venlo, NL) according to manufacturer's protocol. For RNA sequencing, the inventors enriched the mRNA fraction using polyA capture from 200 ng of total RNA using the NEBNext Poly(A) mRNA Magnetic Isolation Module (NEB). They used the NEB Next Ultra II Directional RNA Library Prep Kit for Illumina (NEB) to prepare mRNA libraries according to manufacturer's instructions. The libraries were sequenced as paired-end 50 bp reads on an Illumina NovaSeq6000 (Illumina) with a sequencing depth of approximately 25 million clusters per sample. The inventors performed RNA raw data QC and processing using megSAP (version 0.2-135-gd002274) combined with ngs-bits package (version 2019_11-42-gflb98e63). To align the reads to the GRCh38 they used STAR v2.7.3a and alignment quality was analyzed using ngs-bits. Normalized read counts for all genes were obtained using Subread (v2.0.0) and edgeR (v3.26.6). The inventors used the R package "DESeq2" for further analyses. They defined differentially expressed genes (DEGs) as log2 fold-change (LFC) above or below |1| and p-adjusted < 0.01 as defined by Wald statistics. The inventors analyzed the resulting hits for KEGG pathway association using gProfiler. […] They re-aligned significant LRT genes with DEG results and analyzed them with gProfiler.

[3] = test system: LNZ308 cells; assay: RNA-Sequencing (RNAseq); assay type: cell-based, human
Experimental: as §1

[4] = test system: LN229 and LNZ308 cells; assay: DigiWest Multiplex Protein Analysis, across both cell lines; assay type: cell-based, human; conditions: 72 h
Experimental: After 72 h of AZD6738 treatment, the inventors detached and counted the cells and subsequently snap froze them in liquid nitrogen. For protein preparation, they kept the cells on ice and added 20-30 µL of lysis buffer (LDS Lysis Buffer (Life Technologies, Carlsbad, CA, USA), supplemented with reducing agent (Thermo Fisher Scientific, Waltham, MA, USA) and protease- (Roche Diagnostics GmbH, Mannheim, Germany) and phosphatase-inhibitor (Roche)). Proteins were denatured by heating to 95°C for 10 min before the lysates were transferred to QiaShredder Eppendorf tubes (Eppendorf, Hamburg, Germany). After centrifugation (16,000g, 5 min, RT), eluates were stored at -80°C until further use. Protein quantification was performed using in-gel staining. 1 µL of each original lysate was diluted 1:10 (v/v) in lysis buffer. The respective aliquots were denatured for 10 mins at 70°C and 10 µL were run in a NuPAGE 4-12% Bis-Tris precast gel (Thermo Fisher Scientific) according to the manufacturer's instructions. The gel was washed with water and proteins were stained with BlueBandit (VWR, Darmstadt, Germany) for 1 h. The gel was de-stained over night with ddH2O before detection on a LI-COR (LI-COR, Bad Homburg, Germany) instrument. Analysis and protein quantification was performed using ImageStudio.
The DigiWest analysis was performed as described in the art. In brief, the inventors loaded 10 µg of cellular protein on an SDS-polyacrylamide gel and size-separated them using the commercial NuPAGE system (Life Technologies). Size-separated proteins were blotted onto a PVDF membrane and biotinylated on the membrane using NHS-PEG12-Biotin (50 µM) in PBST for 1 h. After drying of the membrane, the samples lanes were cut into 96 strips of 0.5 mm width using an automated cutting plotter (Silhouette America, West Orem, UT, USA) each corresponding to a defined molecular weight fraction. Each of the strips was placed in one well of a 96-well plate and 10 µl elution buffer (8 M urea, 1% Triton-X100 in 100 mM Tris-HCl pH 9.5) was added. The eluted proteins were diluted with 90 µl of dilution buffer (5% BSA in PBS, 0.02% sodium azide, 0.05% Tween-20) and each of the protein fractions was incubated with 1 distinct magnetic color-coded bead population (Luminex, Austin, USA) coated with neutravidin. The biotinylated proteins bind to the neutravidin beads such that each bead color represents proteins of one specific molecular weight fraction. All 96 protein loaded bead populations were mixed resulting in reconstitution of the original lane. […] Beads were washed twice prior to readout on a Luminex FlexMAP 3D.
For quantification of the antibody specific signals, we used the DigiWest Analyzer software; it automatically identifies peaks of appropriate molecular weight and calculates the peak area. […]

[5] = after continuous dosing; cited from earlier work

For `C[C@@H]1COCCN1c1cc(C2([S@](C)(=N)=O)CC2)nc(-c2cc[nH]c3nccc2-3)n1` [AZD6738, ceralasertib], the cell viability [1] was “dose-dependent reduction”, the “PI3K-Akt signaling (KEGG pathway)” value [2] was “downregulated” and the “p53 signaling (KEGG pathway)” value [2] was “strongly upregulated”. The “PI3K-Akt signaling (KEGG pathway)” value [3] was “upregulated”, the NF-κB ([4]; across both cell lines) was “significant upregulation” and the “markers for ATR target engagement such as pATR, Chk2, and Ku80” value ([4]; across both cell lines) was “significant reduction”. For the same molecule, the “Cleaved PARP” value ([4]; both cell lines) was “upregulated”, the pH2A.X ([4]; both cell lines) was “Upregulation” and the adverse events [5] was “bone marrow suppression”.
